Values after ≈ are worked out from the molar mass of the structure shown.
Assays:
[1] = tested on: Staphylococcus aureus FDA 209P*; test: Antibacterial activity in vitro (MIC), horse blood medium; type: cell-based; details: FDA209P
Method: (§1) The antibacterial activities in vitro (minimum inhibitory concentration, MIC, μg/ml) of the test compounds were measured according to the standard method of the Japanese Chemotherapy Society (Chemotherapy, Vol. 23, p.1126, 1974).
(§2) (Inoculum size: 10^6 cells/ml, Organisms with asterisk (*) were
(§3) cultivated in a 10% horse bloodadded medium.)

[2] = tested on: Acinetobacter calcoaceticus ATCC 13006; test: Antibacterial activity in vitro (MIC); type: cell-based; details: ATCC13006
Method: as §1, §2, §3

[3] = tested on: Bacillus subtilis PCT 219; test: Antibacterial activity in vitro (MIC); type: cell-based; details: PCT219
Method: as §1, §2, §3

[4] = tested on: Citrobacter freundii IFO 12681; test: Antibacterial activity in vitro (MIC); type: cell-based; details: IFO12681, inoculum 10^6 cells/ml
Method: as §1, §2, §3

[5] = tested on: Corynebacterium diphtheriae Tronto; test: Antibacterial activity in vitro (MIC); type: cell-based
Method: as §1, §2, §3

[6] = tested on: Escherichia coli NIHJ JC-2; test: Antibacterial activity in vitro (MIC); type: cell-based; details: NIHJJC2
Method: as §1, §2, §3

[7] = tested on: Escherichia coli O-111; test: Antibacterial activity in vitro (MIC); type: cell-based; details: O111, inoculum 10^6 cells/ml
Method: as §1, §2, §3

[8] = tested on: Escherichia coli T-7; test: Antibacterial activity in vitro (MIC); type: cell-based; details: T7, inoculum 10^6 cells/ml
Method: as §1, §2, §3

[9] = tested on: Klebsiella pneumoniae DT; test: Antibacterial activity in vitro (MIC); type: cell-based
Method: as §1, §2, §3

[10] = tested on: Morganella morganii IFO 3168; test: Antibacterial activity in vitro (MIC); type: cell-based; details: IFO3168
Method: as §1, §2, §3

[11] = tested on: Pediococcus damnosus IFO 3895; test: Antibacterial activity in vitro (MIC); type: cell-based; details: IFO3895
Method: as §1, §2, §3

[12] = tested on: Proteus mirabilis IFO 3849; test: Antibacterial activity in vitro (MIC); type: cell-based; details: IFO3849
Method: as §1, §2, §3

[13] = tested on: Proteus vulgaris IFO 3988; test: Antibacterial activity in vitro (MIC); type: cell-based; details: IFO3988
Method: as §1, §2, §3

[14] = tested on: Pseudomonas aeruginosa IFO 12582; test: Antibacterial activity in vitro (MIC); type: cell-based; details: IFO12582
Method: as §1, §2, §3

[15] = tested on: Pseudomonas aeruginosa U-31; test: Antibacterial activity in vitro (MIC); type: cell-based; details: U31
Method: as §1, §2, §3

[16] = tested on: Pseudomonas putida IFO 12996; test: Antibacterial activity in vitro (MIC); type: cell-based; details: IFO12996
Method: as §1, §2, §3

[17] = tested on: Serratia marcescens IFO 12648; test: Antibacterial activity in vitro (MIC); type: cell-based; details: IFO12648
Method: as §1, §2, §3

[18] = tested on: Shigella flexneri EW-10; test: Antibacterial activity in vitro (MIC); type: cell-based; details: EW10, inoculum 10^6 cells/ml
Method: as §1, §2, §3

[19] = tested on: Shigella sonnei EW-33; test: Antibacterial activity in vitro (MIC); type: cell-based; details: EW33, inoculum 10^6 cells/ml
Method: as §1, §2, §3

[20] = tested on: Shigella typhosa Boxhill-58; test: Antibacterial activity in vitro (MIC); type: cell-based
Method: as §1, §2, §3

[21] = tested on: Staphylococcus aureus 1840; test: Antibacterial activity in vitro (MIC); type: cell-based
Method: as §1, §2, §3

[22] = tested on: Staphylococcus aureus FDA 209P; test: Antibacterial activity in vitro (MIC); type: cell-based; details: FDA209P
Method: as §1, §2, §3

[23] = tested on: Staphylococcus epidermidis ATCC 12228; test: Antibacterial activity in vitro (MIC); type: cell-based; details: ATCC12228
Method: as §1, §2, §3

[24] = tested on: Streptococcus lactis IFO 12546; test: Antibacterial activity in vitro (MIC); type: cell-based; details: Lactococcus lactis, IFO12546
Method: as §1, §2, §3

[25] = tested on: Streptococcus sp. IFO 3535; test: Antibacterial activity in vitro (MIC); type: cell-based; details: IFO3535
Method: as §1, §2, §3

[26] = tested on: Streptococcus viridans America; test: Antibacterial activity in vitro (MIC); type: cell-based
Method: as §1, §2, §3

[27] = tested on: Xanthomonas maltophilia IFO 12690; test: Antibacterial activity in vitro (MIC); type: cell-based; details: Stenotrophomonas maltophilia, IFO12690; inoculum 10^6 cells/ml
Method: as §1, §2, §3

[28] = tested on: E. coli KC-14; test: MIC of the infecting organism (Experiment 2); type: cell-based; details: Escherichia coli, KC14
Method: (§4) Experimental infection was caused by inoculating male mice intraperitoneally with each organism. Each of the test compounds was administered orally to the mice, one hour after the inoculation. The therapeutic effect of each compounds was judged by using a 50% effective dose (ED50) from the survival rate on day 7 after injection by the Probit method as described in Proc. Soc. Exp. Biol. Med., Vol. 57, p.261-264, 1944. The Minimum inhibitory concentrations (MIC) were also measured.

[29] = tested on: S. aureus Smith; test: MIC of the infecting organism (Experiment 2); type: cell-based; details: Staphylococcus aureus
Method: as §4

[30] = tested on: E. coli KC-14; test: Protective effect against experimental infection in mice; type: in vivo; details: oral, 1 h after i.p. inoculation of 5.75 × 10^4 cells/mouse [488 LD50] with mucin; survival day 7; 95% confidence limit
Method: as §4
(§5) (The overnight cultures of test organisms with an asterisk (*) were
(§6) diluted with 50% mucin and 0.5 ml of each was injected intraperitoneally
(§7) into mice. A double asterisk (**) means a 95% confidence limit. MRSA mean
(§8) methycillinresistant Staphylococcus aureus.)

[31] = tested on: S. aureus 109(MRSA); test: as above; type: in vivo; details: oral, 1 h after i.p. inoculation of 4.93 × 10^8 cells/mouse [5.7 LD50] with mucin; survival day 7; 95% confidence limit
Method: as §4, §5, §6, §7, §8

[32] = tested on: S. aureus Smith; test: as above; type: in vivo; details: oral, 1 h after i.p. inoculation of 2.13 × 10^6 cells/mouse [792 LD50] with mucin; survival day 7; 95% confidence limit
Method: as §4, §5, §6, §7, §8

[33] = tested on: S. pneumoniae Type III; test: as above; type: in vivo; details: oral, 1 h after i.p. inoculation of 6.0 × 10^2 cells/mouse [12 LD50]; survival day 7; 95% confidence limit
Method: as §4, §5, §6, §7, §8

[34] = tested on: S. pyogenes C-203; test: as above; type: in vivo; details: oral, 1 h after i.p. inoculation of 4.42 × 10^4 cells/mouse [680 LD50]; survival day 7; 95% confidence limit
Method: as §4, §5, §6, §7, §8

Q: With O=C(O)c1cn(C2CC2)c2cc(N3CCNCC3)c(F)cc2c1=O [CPFX, 1-cyclopropyl-6-fluoro-1,4-dihydro-7-(1-piperazinyl)-4-oxoquinoline-3-carboxylic acid] as the molecule, how does the MIC [1] read?
A: 0.2 mg/L (≈ 0.604 µM)

Q: And the MIC [2]?
A: 0.1 mg/L (≈ 0.302 µM)

Q: What about the MIC [3] of the same molecule?
A: 0.025 mg/L (≈ 0.0754 µM)

Q: What about the MIC [4] of the same molecule?
A: 0.012 mg/L (≈ 0.0362 µM)

Q: And the MIC [5]?
A: 0.1 mg/L (≈ 0.302 µM)

Q: And the MIC [6]?
A: 0.025 mg/L (≈ 0.0754 µM)

Q: And the MIC [7]?
A: 0.012 mg/L (≈ 0.0362 µM)

Q: And the MIC [8]?
A: 0.012 mg/L (≈ 0.0362 µM)

Q: What about the MIC [9] of the same molecule?
A: 0.025 mg/L (≈ 0.0754 µM)

Q: And the MIC [10]?
A: 0.025 mg/L (≈ 0.0754 µM)

Q: What about the MIC [11] of the same molecule?
A: 0.1 mg/L (≈ 0.302 µM)

Q: And the MIC [12]?
A: 0.1 mg/L (≈ 0.302 µM)

Q: What about the MIC [13] of the same molecule?
A: 0.05 mg/L (≈ 0.151 µM)

Q: And the MIC [14]?
A: 0.2 mg/L (≈ 0.604 µM)

Q: What about the MIC [15] of the same molecule?
A: 0.2 mg/L (≈ 0.604 µM)

Q: And the MIC [16]?
A: 0.1 mg/L (≈ 0.302 µM)

Q: What about the MIC [17] of the same molecule?
A: 0.1 mg/L (≈ 0.302 µM)

Q: And the MIC [18]?
A: 0.012 mg/L (≈ 0.0362 µM)

Q: What about the MIC [19] of the same molecule?
A: ≤ 0.006 mg/L

Q: What about the MIC [20] of the same molecule?
A: ≤ 0.006 mg/L

Q: What about the MIC [21] of the same molecule?
A: 3.13 mg/L (≈ 9.45 µM)

Q: What about the MIC [22] of the same molecule?
A: 0.2 mg/L (≈ 0.604 µM)

Q: And the MIC [23]?
A: 0.2 mg/L (≈ 0.604 µM)

Q: What about the MIC [24] of the same molecule?
A: 3.13 mg/L (≈ 9.45 µM)

Q: And the MIC [25]?
A: 3.13 mg/L (≈ 9.45 µM)

Q: And the MIC [26]?
A: 3.13 mg/L (≈ 9.45 µM)

Q: What about the MIC [27] of the same molecule?
A: 0.05 mg/L (≈ 0.151 µM)

Q: What about the MIC [28] of the same molecule?
A: ≤ 0.006 mg/L

Q: What about the MIC [29] of the same molecule?
A: 0.1 mg/L

Q: What about the ED50 [30] of the same molecule?
A: 0.011(0.008-0.015) mg/mouse

Q: What about the ED50 [31] of the same molecule?
A: 1.163(0.460-1.660) mg/mouse

Q: What about the ED50 [32] of the same molecule?
A: 0.325(0.232-0.453) mg/mouse

Q: What about the ED50 [33] of the same molecule?
A: > 2 mg/mouse

Q: What about the ED50 [34] of the same molecule?
A: > 2 mg/mouse

From patent US4889857A, “Quinolonecarboxylic acid compounds and pharmaceutical use thereof” (Yoshitomi Pharmaceutical Industries, Ltd., priority 1987, dated 1989)
